Consider three molecules from US8778947B2 (Intermune, Inc., priority 2012, dated 2014).

“Also recorded” adds a separate entry of the source. Where two headings read alike, the source gives them in different places.

For series [1] the following is noted: cited from earlier work.
A further series in a line: clinical. The following applies: human, in vivo, po; for AUC(0-inf): AUC0-∞.
The nature of series [2]: Phase 1 open-label crossover study: safety (adverse events). Format: in vivo, human (healthy subjects). The source says: The Safety population was defined as subjects who received any amount of pirfenidone or ciprofloxacin.
A short description of series [3]: Ciprofloxacin-pirfenidone in vitro-in vivo extrapolation (IVIVE) simulations of pirfenidone AUC change. The following applies: from in vitro and in vivo data coupled with IVIVE simulations.
From the text: In brief, the process involves combining in vitro knowledge regarding the properties of a potential inhibitor [IC50 values for various cytochrome P450 (CYP) enzymes] with the in vitro knowledge regarding the pathways of metabolism of a given substrate (fraction metabolized by various CYP enzymes).
For the next series, the target named is CYP1A2 (Homo sapiens, UniProt P05177). The following applies: in vitro experiments; cited from earlier work.
Sequence of CYP1A2 (P05177 whole entry): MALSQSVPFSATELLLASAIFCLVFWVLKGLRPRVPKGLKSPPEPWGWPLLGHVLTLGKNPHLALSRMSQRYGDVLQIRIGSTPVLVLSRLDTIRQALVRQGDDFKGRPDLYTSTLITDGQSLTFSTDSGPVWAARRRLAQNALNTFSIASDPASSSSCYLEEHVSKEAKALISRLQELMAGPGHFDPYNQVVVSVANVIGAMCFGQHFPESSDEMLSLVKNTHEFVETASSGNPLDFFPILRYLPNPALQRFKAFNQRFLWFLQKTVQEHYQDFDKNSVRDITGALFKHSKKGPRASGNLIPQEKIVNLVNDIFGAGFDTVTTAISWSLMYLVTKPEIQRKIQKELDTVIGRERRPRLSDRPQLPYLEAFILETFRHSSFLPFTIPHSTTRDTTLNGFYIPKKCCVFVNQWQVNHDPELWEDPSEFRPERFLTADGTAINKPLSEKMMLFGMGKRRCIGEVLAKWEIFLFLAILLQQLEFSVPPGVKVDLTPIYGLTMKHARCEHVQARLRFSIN
Where [4] appears, read: Ratio of Day 6/7 (during ciprofloxacin dosing) to Day 1/2 (pre-ciprofloxacin dosing), N = 27.
[5] abbreviates: plasma, single 801 mg oral pirfenidone with food, Study Day 1/2 (Pre-Ciprofloxacin), N = 27.
Where [6] appears, read: plasma, single 801 mg oral pirfenidone with food, Study Day 6/7 (During Ciprofloxacin 750 mg BID), N = 27.

Method for clinical: 750-mg tablets orally, as follows: • Day 2: 750 mg in the evening • Days 3-6: 750 mg twice a day (BID) • Day 7: 750 mg in the morning.
Both noncompartmental methods and a previously derived population PK (i.e., compartmental) model were used to analyze the plasma concentration-time data and characterize individual subject PK parameters.

Consider `O=C(O)c1cn(C2CC2)c2cc(N3CCNCC3)c(F)cc2c1=O` [Ciprofloxacin, 1-cyclopropyl-6-fluoro-1,4-dihydro-4-oxo-7-(1-piperazinyl)-3-quinolinecarboxylic acid], for which the “[I]in, u (free-drug concentration of the inhibitor entering the liver)” value in series [1] (Ciprofloxacin 250 mg BID) is 52; in series [1] (Ciprofloxacin 500 mg BID) it was 52; in series [1] (ciprofloxacin 750 mg BID) it was 78.
As for `Cc1ccc(=O)n(-c2ccccc2)c1` [Pirfenidone, 5-methyl-1-phenyl-2-(1H)-pyridone], the AUC(0-inf) stood at 50800 ng·h/mL in “clinical” (801 mg, Geometric Mean); 51900 ng·h/mL in the series “clinical” (801 mg, Mean (SD)); 53200 ng·h/mL in “clinical” (801 mg, Median). The Cmax was 10700 ng/mL in the series “clinical” (801 mg, Geometric Mean); 10400 ng/mL in “clinical” (801 mg, Mean (SD)); 10400 ng/mL in the series “clinical” (801 mg, Median). Moreover, the half-life in “clinical” (801 mg, T1/2 (apparent terminal elimination half-life), Geometric Mean) was 2.4 h; in the series “clinical” (801 mg, T1/2, Mean (SD)) it was 2.5 h; in “clinical” (T1/2 (apparent terminal elimination half-life), Geometric Mean), 4.1 h; in the series “clinical” (T1/2, Mean (SD)), 4 h; in the series “clinical” (T1/2, Median) it was 4 h. Besides, the Tmax in “clinical” (801 mg, Geometric Mean) was found to be 2.2 h; in “clinical” (801 mg, Mean (SD)) it was 2.2 h; in the series “clinical” (801 mg, Median) it was 2 h; in the series “clinical” (Geometric Mean), 2.3 h; in “clinical” (Mean (SD)) it was 2.6 h; in the series “clinical” (Median) it was 2 h. The “subjects whose strongest AE relationship was probably related to pirfenidone” value in series [2] (as assessed by the investigator) is 6 subjects. The “subjects with pirfenidone-related AEs only on Day 6” value in series [2] (coadministration with ciprofloxacin) was 5 subjects. For the same molecule, the “subjects with AEs considered related to pirfenidone on Day 1” value in series [2] (dosing with pirfenidone only) is “One”. Besides, the “T1/2, Min, Max” value reads like this: (human, in vivo, po) 2.8, 5.6; (human, in vivo, po, 801 mg) 1.4, 3.6. Moreover, the “Tmax, Min, Max” value (human, in vivo, po) is 1, 4.1 and the “Tmax, Min, Max” value (human, in vivo, po, 801 mg) was 1, 3. For the same molecule, the “AUC0-∞, Min, Max” value (human, in vivo, po, 801 mg) is listed as 30, 88.2. Further, the “Cmax, Min, Max” value (human, in vivo, po, 801 mg) is given as 6.6, 14.4. For the same molecule, the “share of in vivo metabolism of pirfenidone for which CYP1A2 is responsible” value in series [3] is reported as 70-80%. Also, the “CYP isoform metabolizing pirfenidone in vitro” value at CYP1A2 was “primarily metabolized by CYP1A2; also recorded: predominantly carried out by CYP1A2”.
On to `O=C(O)c1ccc(=O)n(-c2ccccc2)c1` [5-Carboxy-Pirfenidone, 5-carboxy-pirfenidone], for which, under setting [4], the “AUC0-∞ Geometric Mean Ratio (90% Confidence Interval)” value is listed as 0.96 (0.92, 1.00) and the “Cmax Geometric Mean Ratio (90% Confidence Interval)” value is reported as 0.62 (0.57, 0.66). In addition, under “after 801 mg pirfenidone”, the “AUC0-∞ Day 6/7 geometric mean lower than on Day 1/2” value is on record as 7.7% and the “Cmax lower with ciprofloxacin coadministration on Day 6/7 than Day 1/2” value came out at 40%. Under setting [5], the “AUC0-∞, Geometric Mean” value amounted to 32600 ng·h/mL; the “AUC0-∞, Mean (SD)” value is on record as 30.9 (4.74) μg*hr/mL; the “AUC0-∞, Median” value came out at 30300 ng·h/mL; the “Cmax, Geometric Mean” value was determined as 6500 ng/mL. Besides, under setting [5], the “Cmax, Mean (SD)” value is 6.1 (1.44) μg/mL; the “Cmax, Median” value came to 5700 ng/mL; the “T1/2 (apparent terminal elimination half-life), Geometric Mean” value is 2.6 h; the “T1/2, Mean (SD)” value is on record as 2.7 (0.73) h. Moreover, under setting [5], the “Tmax, Geometric Mean” value is 2.2 h; the “Tmax, Mean (SD)” value was 2.3 (0.6) h; the “Tmax, Median” value came to 2 h. Moreover, under setting [6], the “AUC0-∞, Geometric Mean” value was 30100 ng·h/mL; the “AUC0-∞, Mean (SD)” value is 29.6 (4.52) μg*hr/mL; the “AUC0-∞, Median” value was 29100 ng·h/mL; the “Cmax, Geometric Mean” value amounted to 3800 ng/mL. For the same molecule, under setting [6], the “Cmax, Mean (SD)” value is listed as 3.8 (0.8) μg/mL; the “Cmax, Median” value was 3800 ng/mL; the “T1/2 (apparent terminal elimination half-life), Geometric Mean” value turned out to be 4 h; the “T1/2, Mean (SD)” value is on record as 4.2 (0.93) h. In addition, under setting [6], the “T1/2, Median” value came to 4 h; the “Tmax, Geometric Mean” value is reported as 2.1 h; the “Tmax, Mean (SD)” value is given as 2 (0.76) h; the “Tmax, Median” value was found to be 2 h. Also, the “T1/2 (apparent terminal elimination half-life), Geometric Mean” value (plasma, single 801 mg oral pirfenidone with food, Study Day 6/7 (During Ciprofloxacin 750 mg BID), N = 27, listed as 5-carboxy-pirfenidone) was 4.0 h.
